In ChEMBL document CHEMBL1201862, “PubChem BioAssay data set” (2004):
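Cultured in 96-well plates, cells were exposed to test compound for 48 hours across five concentrations. Abbreviation: GI50, concentration required for 50% inhibition of growth.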 Active and inactive are the calls of the source. No stated cut-off is given here; in the data, active = GI50 up to about 1.1 µM and inactive = higher.

Columns and labels:
Test in all cases: NCI anticancer screen, dose series, 48 h
BT-549 = system: BT-549
CCRF-CEM = system: CCRF-CEM
DU-145 = system: DU-145
EKVX = system: EKVX
HCT-116 = system: HCT-116
HT-29 = system: HT-29
MDA-MB-435 = system: MDA-MB-435
MDA-N = system: MDA-N
NCI-H226 = system: NCI-H226
NCI-H23 = system: NCI-H23
NCI/ADR-RES = system: NCI/ADR-RES
OVCAR-3 = system: OVCAR-3
OVCAR-8 = system: OVCAR-8
RPMI-8226 = system: RPMI-8226
SF-539 = system: SF-539
T47D = system: T47D
TK-10 = system: TK-10
U-251 = system: U-251
UACC-62 = system: UACC-62
MOLT-4 = system: MOLT-4

Row | SMILES | GI50 (BT-549) | GI50 (CCRF-CEM) | GI50 (DU-145) | GI50 (EKVX) | GI50 (HCT-116) | GI50 (HT-29) | GI50 (MDA-MB-435) | GI50 (MDA-N) | GI50 (NCI-H226) | GI50 (NCI-H23) | GI50 (NCI/ADR-RES) | GI50 (OVCAR-3) | GI50 (OVCAR-8) | GI50 (RPMI-8226) | GI50 (SF-539) | GI50 (T47D) | GI50 (TK-10) | GI50 (U-251) | GI50 (UACC-62) | GI50 (MOLT-4)
1 | COc1ccc(/C=N/c2c(O)ccc3ccccc23)cc1OC | 89.3 µM (inactive) | > 100 µM (inactive) | > 100 µM (inactive) | > 100 µM (inactive) | 97.9 µM (inactive) | 98.9 µM (inactive) | 18.9 µM (inactive) | 17.1 µM (inactive) | > 100 µM (inactive) | 31.8 µM (inactive) | > 100 µM (inactive) | 5.14 µM (inactive) | > 100 µM (inactive) | 19.2 µM (inactive) | > 100 µM (inactive) | 84.5 µM (inactive) | > 100 µM (inactive) | > 100 µM (inactive) | 72.6 µM (inactive) | 
2 | Cc1ccc(Cc2nn(C)c(=O)n2N)cc1 | > 100 µM (inactive) |  | > 100 µM (inactive) | > 100 µM (inactive) | > 100 µM (inactive) | > 100 µM (inactive) | > 100 µM (inactive) | > 100 µM (inactive) | > 100 µM (inactive) | > 100 µM (inactive) | > 100 µM (inactive) | > 100 µM (inactive) | > 100 µM (inactive) | > 100 µM (inactive) | > 100 µM (inactive) | > 100 µM (inactive) | > 100 µM (inactive) | > 100 µM (inactive) | > 100 µM (inactive) | 
3 | COC(=O)C(=O)c1cc2ccccc2n1S(=O)(=O)c1ccccc1 | > 100 µM (inactive) | > 100 µM (inactive) | > 100 µM (inactive) | > 100 µM (inactive) | > 100 µM (inactive) | > 100 µM (inactive) | > 100 µM (inactive) | > 100 µM (inactive) |  | > 100 µM (inactive) | > 100 µM (inactive) | > 100 µM (inactive) | > 100 µM (inactive) |  | > 100 µM (inactive) | > 100 µM (inactive) | > 100 µM (inactive) | > 100 µM (inactive) | > 100 µM (inactive) | > 100 µM (inactive)
4 | C/C(=N\NC(=S)N1CCCC1)c1nc2cccnc2[nH]1 | 0.129 µM (active) | 0.0638 µM (active) | 0.175 µM (active) |  | 0.163 µM (active) | 0.394 µM (active) | 0.416 µM (active) | 0.979 µM (active) | 0.277 µM (active) | 0.679 µM (active) | 0.335 µM (active) | 0.35 µM (active) | 0.304 µM (active) | 0.553 µM (active) | 0.0863 µM (active) | 0.432 µM (active) | 0.557 µM (active) | 0.0962 µM (active) | 0.259 µM (active) | 0.171 µM (active)
5 | N#Cc1nc2cc(Cl)ccc2nc1N1CCN(c2ccc([N+](=O)[O-])cc2)CC1 | > 100 µM (inactive) |  | > 100 µM (inactive) | > 100 µM (inactive) | > 100 µM (inactive) | > 100 µM (inactive) | > 100 µM (inactive) | > 100 µM (inactive) |  | > 100 µM (inactive) | > 100 µM (inactive) | > 100 µM (inactive) | > 100 µM (inactive) | > 100 µM (inactive) | > 100 µM (inactive) | > 100 µM (inactive) | > 100 µM (inactive) | > 100 µM (inactive) | > 100 µM (inactive) | > 100 µM (inactive)
6 | O=[N+]([O-])c1ccc(-n2nc3ccc4c(no[n+]4[O-])c3n2)cc1 | > 100 µM (inactive) | > 100 µM (inactive) | 35.4 µM (inactive) | 24.8 µM (inactive) | > 100 µM (inactive) | > 100 µM (inactive) | > 100 µM (inactive) | > 100 µM (inactive) | > 100 µM (inactive) | > 100 µM (inactive) | > 100 µM (inactive) | > 100 µM (inactive) | > 100 µM (inactive) |  | > 100 µM (inactive) | > 100 µM (inactive) | > 100 µM (inactive) | > 100 µM (inactive) | 88.3 µM (inactive) | 74.6 µM (inactive)
7 | Cc1ccc2c(c1)Sc1ccc(/N=N/N(C)C)cc1N2C | 71 µM (inactive) | 46 µM (inactive) | > 100 µM (inactive) | > 100 µM (inactive) | > 100 µM (inactive) | > 100 µM (inactive) | > 100 µM (inactive) | > 100 µM (inactive) | > 100 µM (inactive) | > 100 µM (inactive) | > 100 µM (inactive) | 53.2 µM (inactive) | > 100 µM (inactive) | 59.4 µM (inactive) |  | 31.7 µM (inactive) | > 100 µM (inactive) | > 100 µM (inactive) | > 100 µM (inactive) | 57.7 µM (inactive)
8 | CCOC(=O)CCc1c(C)nc2c(C)c3c([nH]c4ccc(Cl)cc43)c(C)c2c1O | 10.1 µM (inactive) | 7.91 µM (inactive) | 25.5 µM (inactive) | 10.2 µM (inactive) | 10.9 µM (inactive) | 4.75 µM (inactive) | 9.18 µM (inactive) | 10.7 µM (inactive) | 17.1 µM (inactive) | 19.2 µM (inactive) | 17.3 µM (inactive) |  | 23.5 µM (inactive) |  | 11.2 µM (inactive) | 14.8 µM (inactive) | 10.7 µM (inactive) | 11 µM (inactive) |  | 6.01 µM (inactive)
9 | c1ccc2c(c1)-c1nc3ccccc3cc1C2N1CCOCC1 (configuration not stated) | > 100 µM (inactive) | 28.4 µM (inactive) | > 100 µM (inactive) | 63.1 µM (inactive) | > 100 µM (inactive) | 92.5 µM (inactive) | > 100 µM (inactive) | > 100 µM (inactive) | > 100 µM (inactive) | > 100 µM (inactive) | 81.3 µM (inactive) | > 100 µM (inactive) | 93.5 µM (inactive) | 72.1 µM (inactive) |  | 45.8 µM (inactive) | > 100 µM (inactive) | > 100 µM (inactive) | 97.5 µM (inactive) | 57.9 µM (inactive)
10 | Oc1c(Br)cc(/C=C/c2ccnc(/C=C/c3cc(Br)c(O)c(Br)c3)c2)cc1Br | 33.4 µM (inactive) | 22.6 µM (inactive) | 20.4 µM (inactive) | 25.4 µM (inactive) | 17 µM (inactive) | 21.7 µM (inactive) | 26.7 µM (inactive) | 33.5 µM (inactive) |  |  | 31.6 µM (inactive) | 19.7 µM (inactive) | 26.8 µM (inactive) | 20.7 µM (inactive) | 18.5 µM (inactive) | 16.7 µM (inactive) | 27.2 µM (inactive) | 15.2 µM (inactive) | 24.3 µM (inactive) | 21 µM (inactive)
11 | OC1[C@@H]2[C@@H](O)[C@H](O)[C@@H](O)N2C[C@@H]1O (some centres not stated) | > 100 µM (inactive) | > 100 µM (inactive) | > 100 µM (inactive) | > 100 µM (inactive) | > 100 µM (inactive) | > 100 µM (inactive) | > 100 µM (inactive) | > 100 µM (inactive) | > 100 µM (inactive) | > 100 µM (inactive) | > 100 µM (inactive) | > 100 µM (inactive) | > 100 µM (inactive) |  | > 100 µM (inactive) | > 100 µM (inactive) | > 100 µM (inactive) | > 100 µM (inactive) | > 100 µM (inactive) | > 100 µM (inactive)
12 | O=C1CCCCC/C1=C\c1cccc(F)c1 | 51.9 µM (inactive) | 24.3 µM (inactive) | > 100 µM (inactive) | 73.8 µM (inactive) | 54.6 µM (inactive) | 60.5 µM (inactive) | 55.2 µM (inactive) | 62.5 µM (inactive) |  |  | > 100 µM (inactive) | > 100 µM (inactive) | > 100 µM (inactive) | 19.8 µM (inactive) | > 100 µM (inactive) | > 100 µM (inactive) | 62.5 µM (inactive) | 48.1 µM (inactive) | 67.3 µM (inactive) | 24.8 µM (inactive)
13 | O=C1CSC(c2cccc(Oc3ccccc3)c2)N1c1cc(Cl)ccc1Cl (configuration not stated) | 19.1 µM (inactive) | 17.2 µM (inactive) | 35.2 µM (inactive) | 26.1 µM (inactive) | 17.3 µM (inactive) | 22.4 µM (inactive) | 15.4 µM (inactive) | 17.6 µM (inactive) | 23.4 µM (inactive) | 31.9 µM (inactive) | 29.2 µM (inactive) | 22.1 µM (inactive) | 23.7 µM (inactive) |  | 19.1 µM (inactive) | 21.7 µM (inactive) | 25.5 µM (inactive) | 18.4 µM (inactive) | 16 µM (inactive) | 22.6 µM (inactive)
14 | COC(=O)OC[C@H]1O[C@@H](n2cc(C)c(=O)[nH]c2=O)CC1OC(=O)OC (some centres not stated) | > 100 µM (inactive) | > 100 µM (inactive) | > 100 µM (inactive) | > 100 µM (inactive) |  | > 100 µM (inactive) | > 100 µM (inactive) | > 100 µM (inactive) | > 100 µM (inactive) | > 100 µM (inactive) | > 100 µM (inactive) | > 100 µM (inactive) | > 100 µM (inactive) | > 100 µM (inactive) | > 100 µM (inactive) | > 100 µM (inactive) | > 100 µM (inactive) | > 100 µM (inactive) | > 100 µM (inactive) | > 100 µM (inactive)
15 | Cc1cnc(-c2c[nH]c3ccccc23)nc1-c1c[nH]c2ccccc12 | 19 µM (inactive) | 1.52 µM (inactive) | 6.73 µM (inactive) | 6.21 µM (inactive) | 4.56 µM (inactive) | 4.18 µM (inactive) | 5.87 µM (inactive) | 4.2 µM (inactive) |  |  | 7.67 µM (inactive) | 8.13 µM (inactive) | 6.08 µM (inactive) | 3.9 µM (inactive) | 11.7 µM (inactive) | 1.75 µM (inactive) | 5.31 µM (inactive) | 6.46 µM (inactive) | 4.27 µM (inactive) | 4.2 µM (inactive)
